According to US6410684B1, “Serine protease inhibitors” (Akzo Nobel N.V., priority 1996, dated 2002):

biological target: T1, Thrombin (Factor IIa) (Homo sapiens, UniProt P00734); assay: Anti-thrombin assay (hydrolysis of chromogenic substrate S-2238); assay type: biochemical; details: chromogenic substrate S-2238, TNP buffer, 37° C., absorbance at 405 nm
T1 construct: purchased Centraal Laboratorium voor Bloedtransfusie, Amsterdam, The Netherlands
Procedure: Thrombin (Factor IIa) is a factor in the coagulation cascade. The anti-thrombin activity of compounds of the present invention was assessed by measuring spectrophotometrically the rate of hydrolysis of the chromogenic substrate s-2238 exterted by thrombin. This assay for anti-thrombin activity in a buffer system was used to assess the IC50-value of a test compound.
Test medium: Tromethamine-NaCl-polyethylene glycol 6000 (TNP) buffer. Reference compound: 12581 (Kabi) Vehicle: TNP buffer. Solubilisation can be assisted with dimethylsulphoxide, methanol, ethanol, acetonitrile or tert-butyl alcohol which are without adverse effects in concentrations up to 2.5% in the final reaction mixture.
Reagents*: 1. Tromethamine-NaCl (TN) buffer. Composition of the buffer: Tromethamine (Tris) 6.057 g (50 mmol), NaCl 5.844 g (100 mmol), water to 1 l. The pH of the solution is adjusted to 7.4 at 37° C. with HCl (10 mmol·l^−1). 2. TNP buffer: Polyethylene glycol 6000 is dissolved in TN buffer to give a concentration of 3 g·l^−1. 3. S-2238 solution: One vial S-2238 (25 mg; Kabi Diagnostica, Sweden) is dissolved in 20 ml TN buffer to give a concentration of 1.25 mg·ml^−1 (2 mmol·l^−1). 4. Thrombin solution: Human thrombin (16 000 nKat·vial^−1; Centraal Laboratorium voor Bloedtransfusie, Amsterdam, The Netherlands) is dissolved in TNP buffer to give a stock solution of 835 nKat·ml^−1. Immediately before use this solution is diluted with TNP buffer to give a concentration of 3.34 nKat·ml^−1.
The test and reference compounds are dissolved in Milli-Q water to give stock concentrations of 10^−2 mol·l^−1. Each concentration is stepwise diluted with the vehicle to give concentrations of 10^−3, 10^−4 and 10^−5 mol·l^−1. The dilutions, including the stock solution, are used in the assay (final concentrations in the reaction mixture: 3·10^−3; 10^−3; 3·10^−4; 10^−4; 3·10^−5; 10^−5; 3·10^−6; and 10^−6 mol·l^−1, respectively).
At room temperature 0.075 ml and 0.025 ml test compound or reference compound solutions or vehicle are alternately pipetted into the wells of a microtiter plate and these solutions are diluted with 0.115 ml and 0.0165 ml TNP buffer, respectively. An aliquot of 0.030 ml S-2238 solution is added to each well and the plate is pre-heated and pre-incubated with shaking in an incubator (Amersham) for 10 min. at 37° C. Following pre-incubation the hydrolysis of S-2238 is started by addition of 0.030 ml thrombin solution to each well. The plate is incubated (with shaking for 30 s) at 37° C. Starting after 1 min of incubation, the absorbance of each sample at 405 nm is measured every 2 min. for a period of 90 min. using a kinetic microtiter plate reader (Twinreader plus, Flow Laboratories).
All data are collected in an IBM personal computer using LOTUS-MEASURE. For each compound concentration (expressed in mol·l^−1 reaction mixture) and for the blank the absorbance is plotted versus the reaction time in min.
Evaluation of responses: For each final concentration the maximum absorbance was calculated from the assay plot. The IC50-value (final concentration, expressed in μmol·l^−1, causing 50% inhibition of the maximum absorbance of the blank) was calculated using the logit transformation analysis according to Hafner et al. (Arzneim.-Forsch./Drug Res. 1977; 27(II): 1871-3).

| Compound | IC50 [µM] |
| --- | --- |
| CNC(CC1CCCCC1)C(=O)N1CCCC1C(=O)NC(CC#CCN)C(=O)C(=O)O [Example 3, N-Me-D-Cha-Pro-LysininylΨ[COCO]—OH] | 4.3 |
| NCC#CCC(NC(=O)C1CCCN1C(=O)C1NCCC2CCCCC21)C(=O)c1nccs1 (stereo not drawn) [Example 27] | 4.64 |
| NCCCCC(NC(=O)[C@@H]1CCCN1C(=O)[C@@H](Cc1ccc(Cl)cc1)NCC(=O)O)C(=O)c1nccs1 (stereo partly drawn) [Example 30, HOOC—CH2-D-p-Cl-Phe-Pro-Lysininyl-(2-thiazolyl)] | 5.1 |
| NCC#CCC(NC(=O)C1CCCN1C(=O)C(Cc1ccccc1)NCC(=O)O)C(=O)C(=O)O [Example 11, HOOC—CH2-D-Phe-Pro-LysininylΨ[COCO]—OH] | 5 |

Second part, the molecule after the results:

| IC50 [µM] | Compound |
| --- | --- |
| 0.7 | NCC#CCC(NC(=O)C1CCCN1C(=O)C(CC1CCCCC1)NCC(=O)O)C(=O)C(=O)N1CCC1 (stereo not drawn) [Example 15] |
| 0.56 | NCC#CCC(NC(=O)C1CCCN1C(=O)C(CC1CCCCC1)NCC(=O)O)C(=O)c1nccs1 (stereo not drawn) [Example 1] |
